Assay results reported in patent US20150018301A1, “LRRK-2-Mediated Neuronal Toxicity” (THE JOHNS HOPKINS UNIVERSITY, priority 2009, published 2015).

Experiments:
Assay type in all cases: biochemical
LRRK2 WT [1] = target: T1, LRRK2 WT (Homo sapiens, UniProt Q5S007); experiment: In vitro kinase assay: LRRK2 autophosphorylation; conditions: for IC50: mean of three experiments; for LRRK2 autophosphorylation Average ± SEM: compound 16 μM, phosphorylation normalized to absence of compound, mean ± S.E.M. of three experiments; for effect on LRRK2 autophosphorylation: screen at 16 μM
T1 sequence (Q5S007 whole entry): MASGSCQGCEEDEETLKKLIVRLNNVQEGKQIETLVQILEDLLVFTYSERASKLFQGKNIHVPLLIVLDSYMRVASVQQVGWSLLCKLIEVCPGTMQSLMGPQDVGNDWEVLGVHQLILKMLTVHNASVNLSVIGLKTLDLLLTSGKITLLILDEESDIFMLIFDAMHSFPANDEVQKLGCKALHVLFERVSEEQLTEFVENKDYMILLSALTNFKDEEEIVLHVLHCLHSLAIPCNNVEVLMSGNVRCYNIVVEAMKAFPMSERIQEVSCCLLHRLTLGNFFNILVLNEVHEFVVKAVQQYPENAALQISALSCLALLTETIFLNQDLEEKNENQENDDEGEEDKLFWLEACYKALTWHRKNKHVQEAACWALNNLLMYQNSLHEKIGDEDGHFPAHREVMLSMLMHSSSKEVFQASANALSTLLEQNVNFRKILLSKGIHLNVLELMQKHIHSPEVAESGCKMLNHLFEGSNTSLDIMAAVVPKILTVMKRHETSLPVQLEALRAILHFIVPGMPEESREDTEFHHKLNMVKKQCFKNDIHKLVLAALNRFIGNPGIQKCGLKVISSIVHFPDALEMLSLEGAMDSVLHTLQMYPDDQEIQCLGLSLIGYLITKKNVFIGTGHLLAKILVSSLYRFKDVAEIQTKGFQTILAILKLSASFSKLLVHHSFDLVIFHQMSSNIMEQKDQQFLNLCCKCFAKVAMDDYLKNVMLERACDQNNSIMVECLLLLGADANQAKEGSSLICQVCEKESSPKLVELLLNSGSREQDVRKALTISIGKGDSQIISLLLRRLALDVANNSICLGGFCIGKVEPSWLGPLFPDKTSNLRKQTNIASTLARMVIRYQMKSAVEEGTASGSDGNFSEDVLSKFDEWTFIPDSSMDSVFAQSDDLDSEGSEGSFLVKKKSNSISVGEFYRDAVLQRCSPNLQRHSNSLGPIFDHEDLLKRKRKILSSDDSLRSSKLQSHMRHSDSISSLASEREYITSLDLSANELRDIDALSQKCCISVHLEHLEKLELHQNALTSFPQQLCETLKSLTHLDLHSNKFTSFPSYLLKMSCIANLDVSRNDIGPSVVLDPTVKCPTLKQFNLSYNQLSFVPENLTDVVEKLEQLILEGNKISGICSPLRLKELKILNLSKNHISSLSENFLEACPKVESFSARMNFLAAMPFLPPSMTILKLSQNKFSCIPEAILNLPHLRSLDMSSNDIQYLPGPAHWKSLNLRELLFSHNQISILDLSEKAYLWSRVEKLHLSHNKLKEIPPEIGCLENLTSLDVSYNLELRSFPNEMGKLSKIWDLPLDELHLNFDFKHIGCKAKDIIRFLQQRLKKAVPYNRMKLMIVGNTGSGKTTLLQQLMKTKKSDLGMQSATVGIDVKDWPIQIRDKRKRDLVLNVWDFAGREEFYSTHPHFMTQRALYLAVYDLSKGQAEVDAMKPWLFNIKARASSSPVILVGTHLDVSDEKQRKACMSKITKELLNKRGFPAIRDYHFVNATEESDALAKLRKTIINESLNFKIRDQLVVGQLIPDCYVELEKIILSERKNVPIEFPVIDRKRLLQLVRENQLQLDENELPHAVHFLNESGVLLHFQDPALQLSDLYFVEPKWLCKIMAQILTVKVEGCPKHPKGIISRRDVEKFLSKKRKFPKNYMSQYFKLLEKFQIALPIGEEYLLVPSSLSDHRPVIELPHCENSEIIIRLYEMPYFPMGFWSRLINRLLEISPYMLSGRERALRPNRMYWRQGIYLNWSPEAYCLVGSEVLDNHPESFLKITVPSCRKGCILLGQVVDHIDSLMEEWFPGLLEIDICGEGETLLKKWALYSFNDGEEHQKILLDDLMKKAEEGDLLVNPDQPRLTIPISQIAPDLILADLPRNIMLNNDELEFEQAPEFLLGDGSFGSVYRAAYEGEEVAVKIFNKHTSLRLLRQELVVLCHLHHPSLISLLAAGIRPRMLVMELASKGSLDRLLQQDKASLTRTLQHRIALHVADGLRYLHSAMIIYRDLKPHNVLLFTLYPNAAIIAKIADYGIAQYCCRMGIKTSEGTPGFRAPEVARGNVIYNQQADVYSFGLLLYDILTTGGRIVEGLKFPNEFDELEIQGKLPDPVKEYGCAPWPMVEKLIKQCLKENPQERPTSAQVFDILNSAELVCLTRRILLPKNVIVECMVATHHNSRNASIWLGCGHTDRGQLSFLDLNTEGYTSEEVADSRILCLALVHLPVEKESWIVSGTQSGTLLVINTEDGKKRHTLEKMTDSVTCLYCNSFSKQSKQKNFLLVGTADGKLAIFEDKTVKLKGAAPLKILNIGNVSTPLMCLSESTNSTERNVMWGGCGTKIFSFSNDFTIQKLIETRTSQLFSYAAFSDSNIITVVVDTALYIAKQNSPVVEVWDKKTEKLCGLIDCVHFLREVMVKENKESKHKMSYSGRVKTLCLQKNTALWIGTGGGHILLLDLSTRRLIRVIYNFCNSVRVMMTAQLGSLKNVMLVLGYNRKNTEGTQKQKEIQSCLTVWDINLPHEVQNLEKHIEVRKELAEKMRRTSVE

LRRK2 WT [2] = target: T1, LRRK2 WT; experiment: In vitro kinase assay: LRRK2-mediated MBP phosphorylation; conditions: for IC50: mean of three experiments; for MBP phosphorylation Average ± SEM: compound 16 μM, 30° C., 15 min, normalized to absence of compound, mean ± S.E.M. of three experiments; for effect on LRRK2-mediated phosphorylation of MBP: screen at 16 μM
LRRK2 G2019S [3] = target: T2, LRRK2 G2019S (Homo sapiens, UniProt Q5S007, G2019S); experiment: In vitro kinase assay: G2019S LRRK2 autophosphorylation; conditions: mean of three experiments
T2 sequence (Q5S007 whole entry G2019S): as the sequence (Q5S007 whole entry) above, with G2019S counted along it
Procedure: (§1) Transfection was performed by using Fugene HD reagent (Roche Applied Science) according to the manufacturer's instruction. For purification of recombinant LRRK1 and LRRK2 proteins, ACTA Purifier (GE Healthcare) FPLC system was used.
(§2) Resulting lysates were rotated at 4° C. for 30 min followed by centrifugation at 20,000×g for 15 min. The supernatants were injected into a GSTrap FF column pre-equilibrated with PBS at 0.5. mL/min flow after filtration using a 0.2 μm syringe filter (Corning). The bound proteins were eluted with buffer containing 10 mM GSH (Sigma), 150 mM NaCl, and 50 mM Tris-HCl (pH 8.0).
(§3) The in vitro kinase assay was performed as previously described. […] Recombinant LRRK2 and MBP or CST-4E-BP1 were combined before the kinase reaction. LRRK2 autophosphorylation is LRRK2 itself phosphorylation and MBP or GST-4E-BP1 phosphorylation is induced by LRRK2. After the kinase reaction, combined LRRK2 and MBP or GST-4E-BP1 were loaded on SDSPAGE and phosphorylated LRRK2 and MBP or GST-4E-BP1 could be detected separately an a single gel. Recombinant proteins and inhibitors were incubated at 30° C. in kinase assay buffer containing 20 mM Hepes (pH 7.4), 5 mM EGTA, and 20 mM β-glycerol phosphate. 0.5 μg MBP (Upstate) or 0.5 μg GST-4B-BP1, 50 μM ATP (Sigma), 20 mM MgCl2, and 1 μCi [γ-32P] ATP (PerkinElmer) was added after 5 min. The reaction was performed at 30° C. to reduce non-specific 32P incorporation for 15 min and terminated by the addition of 5×Laemmili sample buffer. […] Gels were stained by coomassie brilliant blue after fixation with 10% acetic acid and 40% methanol and then exposed to a Phosphoimager. Data were analyzed by ImageQuant 6.0 software.
(§4) To calculate the IC50 value, a dose-response curve was constructed and non-linear regression analysis using the equation for a sigmoid plot.

LRRK2 G2019S [4] = target: T2, LRRK2 G2019S; experiment: In vitro kinase assay: G2019S LRRK2-mediated MBP phosphorylation; conditions: mean of three experiments
Procedure: as §1, §2, §3, §4

LRRK1 WT [5] = target: T3, LRRK1 WT (Homo sapiens, UniProt Q38SD2); experiment: In vitro kinase assay: LRRK1 autophosphorylation
T3 sequence (Q38SD2 whole entry): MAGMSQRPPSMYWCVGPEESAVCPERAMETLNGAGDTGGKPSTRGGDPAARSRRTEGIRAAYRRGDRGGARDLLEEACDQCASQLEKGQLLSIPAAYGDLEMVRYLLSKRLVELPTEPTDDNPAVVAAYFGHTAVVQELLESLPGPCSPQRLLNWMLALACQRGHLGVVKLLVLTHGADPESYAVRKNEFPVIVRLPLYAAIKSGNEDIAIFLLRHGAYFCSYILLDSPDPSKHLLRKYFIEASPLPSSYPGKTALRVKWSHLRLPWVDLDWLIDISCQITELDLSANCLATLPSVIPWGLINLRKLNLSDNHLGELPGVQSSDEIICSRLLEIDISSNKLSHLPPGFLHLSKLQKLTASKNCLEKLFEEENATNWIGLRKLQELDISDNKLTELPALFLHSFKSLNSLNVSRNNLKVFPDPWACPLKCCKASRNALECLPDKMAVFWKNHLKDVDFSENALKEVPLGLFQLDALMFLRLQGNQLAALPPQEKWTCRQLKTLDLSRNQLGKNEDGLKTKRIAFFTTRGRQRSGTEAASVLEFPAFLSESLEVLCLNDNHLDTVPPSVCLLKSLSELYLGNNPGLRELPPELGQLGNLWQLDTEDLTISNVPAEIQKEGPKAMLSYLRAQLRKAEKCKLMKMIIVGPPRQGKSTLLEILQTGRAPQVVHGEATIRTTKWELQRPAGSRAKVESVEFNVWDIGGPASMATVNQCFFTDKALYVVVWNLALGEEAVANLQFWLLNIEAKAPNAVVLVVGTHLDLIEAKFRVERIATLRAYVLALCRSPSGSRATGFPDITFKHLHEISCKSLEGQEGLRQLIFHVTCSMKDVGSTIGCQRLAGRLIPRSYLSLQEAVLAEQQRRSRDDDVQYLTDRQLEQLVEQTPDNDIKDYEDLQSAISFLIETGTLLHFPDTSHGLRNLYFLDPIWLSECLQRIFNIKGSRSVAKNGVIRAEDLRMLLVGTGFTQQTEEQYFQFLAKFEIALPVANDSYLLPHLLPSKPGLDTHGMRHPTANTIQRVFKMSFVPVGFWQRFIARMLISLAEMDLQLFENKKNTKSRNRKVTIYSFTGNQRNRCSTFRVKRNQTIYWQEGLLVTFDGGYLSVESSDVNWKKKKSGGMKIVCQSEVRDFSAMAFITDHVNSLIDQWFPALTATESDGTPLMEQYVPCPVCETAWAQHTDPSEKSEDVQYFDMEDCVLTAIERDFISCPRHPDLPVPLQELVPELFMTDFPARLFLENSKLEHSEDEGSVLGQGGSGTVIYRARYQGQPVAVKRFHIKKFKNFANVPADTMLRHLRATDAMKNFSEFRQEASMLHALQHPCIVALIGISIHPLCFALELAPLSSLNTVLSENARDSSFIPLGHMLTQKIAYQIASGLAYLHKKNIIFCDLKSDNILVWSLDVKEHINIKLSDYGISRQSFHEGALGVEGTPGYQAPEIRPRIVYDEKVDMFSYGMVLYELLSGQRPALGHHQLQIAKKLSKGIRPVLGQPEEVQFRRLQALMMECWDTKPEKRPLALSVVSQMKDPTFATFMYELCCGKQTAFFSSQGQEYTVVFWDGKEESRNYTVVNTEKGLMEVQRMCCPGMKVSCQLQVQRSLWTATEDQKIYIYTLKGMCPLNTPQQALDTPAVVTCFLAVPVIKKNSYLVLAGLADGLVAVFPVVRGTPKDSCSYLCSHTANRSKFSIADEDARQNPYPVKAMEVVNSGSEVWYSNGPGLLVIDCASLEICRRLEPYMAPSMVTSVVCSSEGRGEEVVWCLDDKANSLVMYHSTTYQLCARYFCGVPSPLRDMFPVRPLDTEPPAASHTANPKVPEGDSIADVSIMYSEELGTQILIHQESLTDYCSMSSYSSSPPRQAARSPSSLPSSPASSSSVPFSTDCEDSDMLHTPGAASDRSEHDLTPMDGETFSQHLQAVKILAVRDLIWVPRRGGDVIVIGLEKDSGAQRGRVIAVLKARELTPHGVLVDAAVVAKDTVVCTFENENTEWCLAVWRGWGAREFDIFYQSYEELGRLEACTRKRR

LRRK1 WT [6] = target: T3, LRRK1 WT; experiment: In vitro kinase assay: LRRK1-mediated MBP phosphorylation

Compound | LRRK2 autophosphorylation Average ± SEM (LRRK2 WT [1]) | MBP phosphorylation Average ± SEM (LRRK2 WT [2]) | also measured
Nc1ncnc2c1c(I)cn2[C@@H]1O[C@H](CO)[C@@H](O)[C@H]1O [Inhibitor 49, 5-iodo-tubercidin, reference compound] | 29.4 ± 14.7 % of control | 39.3 ± 9.9 % of control | IC50 (LRRK2 WT [1]; Table 2): 3.21 µM; effect on LRRK2 autophosphorylation (LRRK2 WT [1]): substantially inhibited; IC50 (LRRK2 WT [2]; Table 2): 14.8 µM; effect on LRRK2-mediated phosphorylation of MBP (LRRK2 WT [2]): substantially inhibited; IC50 (LRRK2 G2019S [3]; Table 2): 4.23 µM; IC50 (LRRK2 G2019S [4]; Table 2): 3.41 µM
CN(C)CCCn1cc(C2=C(c3c[nH]c4ccccc34)C(=O)NC2=O)c2ccccc21 [Inhibitor 31, GP109203X, reference compound] | 16.1 ± 8.8 % of control | 13.0 ± 8.2 % of control | IC50 (LRRK2 WT [1]; Table 2): 5.27 µM; effect on LRRK2 autophosphorylation (LRRK2 WT [1]): substantially inhibited; IC50 (LRRK2 WT [2]; Table 2): 2.19 µM; effect on LRRK2-mediated phosphorylation of MBP (LRRK2 WT [2]): substantially inhibited; IC50 (LRRK2 G2019S [3]; Table 2): 17 µM; IC50 (LRRK2 G2019S [4]; Table 2): 2.62 µM
O=C1c2ccccc2-c2n[nH]c3cccc1c23 [Inhibitor 68, SP600125, reference compound] | 18.3 ± 22.8 % of control | 31.2 ± 12.1 % of control | IC50 (LRRK2 WT [1]; Table 2): 3.71 µM; effect on LRRK2 autophosphorylation (LRRK2 WT [1]): substantially inhibited; IC50 (LRRK2 WT [2]; Table 2): 3.1 µM; effect on LRRK2-mediated phosphorylation of MBP (LRRK2 WT [2]): substantially inhibited; IC50 (LRRK2 G2019S [3]; Table 2): 3.37 µM; IC50 (LRRK2 G2019S [4]; Table 2): 5 µM
COc1ccc(S(=O)(=O)N(CCO)c2ccccc2CN(C)C/C=C/c2ccc(Cl)cc2)cc1 [Inhibitor 41, KN-93] | – | – | effect on LRRK2-mediated phosphorylation of MBP (LRRK2 WT [2]): no effect; effect on LRRK1 autophosphorylation (LRRK1 WT [5]): no effect; effect on LRRK1 MBP phosphorylation (LRRK1 WT [6]): no effect
CC(C)n1cnc2c(NCc3ccccc3)nc(NCCO)nc21 [Inhibitor 45] | 56.2 ± 30.8 % of control | 111.7 ± 69.7 % of control | –
Cn1cc(C2=C(c3cn(CCCSC(=N)N)c4ccccc34)C(=O)NC2=O)c2ccccc21 [Inhibitor 33, Ro31-8220, reference compound] | 5.4 ± 3.0 % of control | 26.0 ± 38.5 % of control | IC50 (LRRK2 WT [1]; Table 2): 1.64 µM; effect on LRRK2 autophosphorylation (LRRK2 WT [1]): substantially inhibited; IC50 (LRRK2 WT [2]; Table 2): 0.05 µM; effect on LRRK2-mediated phosphorylation of MBP (LRRK2 WT [2]): substantially inhibited; IC50 (LRRK2 G2019S [3]; Table 2): 4.51 µM; IC50 (LRRK2 G2019S [4]; Table 2): 5.16 µM
O=C(O)c1cc(N(Cc2ccccc2O)Cc2cc(O)ccc2O)ccc1O [Inhibitor 9] | 84.3 ± 21.1 % of control | 65.2 ± 35.5 % of control | –
N#C/C(=C\c1ccc(O)c(O)c1)C(=O)NCc1ccccc1 [Inhibitor 25] | 78.5 ± 5.8 % of control | 82.9 ± 17.7 % of control | –
Nc1ncc2[nH]cnc2n1 [Inhibitor 44, 2-aminopurine] | 95.3 ± 5.9 % of control | 77.2 ± 86.4 % of control | –
N#CC(C#N)=Cc1ccc(O)c(O)c1 [Inhibitor 11] | 66.9 ± 2.0 % of control | 55.5 ± 56.5 % of control | –
N#CC(C#N)=Cc1cc(O)c(O)c(O)c1 [Inhibitor 12] | 62.8 ± 15.8 % of control | 65.9 ± 31.4 % of control | –
O=c1c(-c2ccc(O)cc2)coc2cc(O)cc(O)c12 [Inhibitor 59] | 69.4 ± 37.9 % of control | 63.1 ± 66.7 % of control | –
CC(C)C(C(=O)OC(C#N)c1cccc(Oc2ccccc2)c1)c1ccc(Cl)cc1 (stereo not shown) [Inhibitor 82] | 80.4 ± 13.0 % of control | 61.5 ± 54.0 % of control | –
COc1c(C=O)c(O)cc2c1C(=O)c1ccccc1C2=O [Inhibitor 22, Damnacanthal, reference compound] | 34.7 ± 6.2 % of control | 35.7 ± 10.3 % of control | IC50 (LRRK2 WT [1]; Table 2): 19.1 µM; effect on LRRK2 autophosphorylation (LRRK2 WT [1]): substantially inhibited; IC50 (LRRK2 WT [2]; Table 2): 7.81 µM; effect on LRRK2-mediated phosphorylation of MBP (LRRK2 WT [2]): substantially inhibited; IC50 (LRRK2 G2019S [3]; Table 2): 5.25 µM; IC50 (LRRK2 G2019S [4]; Table 2): 9.45 µM
N#CC(C#N)=C(N)/C(C#N)=C/c1ccc2[nH]ccc2c1 [Inhibitor 27] | 73.2 ± 8.8 % of control | 79.5 ± 17.8 % of control | –
N#C/C(=C/c1cc(Cl)cc(Cl)c1)c1cccnc1 [Inhibitor 10] | 90.8 ± 30.7 % of control | 45.2 ± 46.1 % of control | –
CNCCNS(=O)(=O)c1cccc2cnccc12 [Inhibitor 36] | 80.9 ± 3.0 % of control | 50.2 ± 29.4 % of control | –
N#C/C(=C\c1ccc(O)c(O)c1)C(N)=O [Inhibitor 13] | 81.0 ± 13.4 % of control | 117.3 ± 18.5 % of control | –
O=P(O)(O)Cc1ccccc1 [Inhibitor 74] | 68.3 ± 1.85 % of control | 121.8 ± 23.6 % of control | –
O=c1c(-c2ccc(O)cc2)coc2cc(O)ccc12 [Inhibitor 60] | 81.0 ± 31.9 % of control | 141.0 ± 50.8 % of control | –
N#C/C(=C\c1ccc(O)c(O)c1)C(=O)Nc1ccccc1 [Inhibitor 7] | 56.1 ± 27.6 % of control | 75.6 ± 56.9 % of control | –
Oc1cc(O)cc(/C=C/c2ccc(O)c(O)c2)c1 [Inhibitor 23] | 87 ± 38.6 % of control | 93.0 ± 17.8 % of control | –
N#CC(C#N)=Cc1ccc([N+](=O)[O-])c(O)c1 [Inhibitor 26] | 82.3 ± 10.5 % of control | 114.3 ± 14.1 % of control | –
Raf inhibitor IV | – | – | selectivity for LRRK2 kinase activity (LRRK2 WT [1]; LRRK2 versus LRRK1 kinase activity): relatively selective; IC50 (LRRK2 WT [1]; Table 3): 5.43 µM; IC50 (LRRK2 WT [2]; Table 3): 3.61 µM; IC50 (LRRK2 G2019S [3]; Table 3): 3.94 µM; IC50 (LRRK2 G2019S [4]; Table 3): 6.51 µM; effect on LRRK1 autophosphorylation (LRRK1 WT [5]): minimal to no effect; effect on LRRK1 MBP phosphorylation (LRRK1 WT [6]): minimal to no effect; IC50 (LRRK1 WT [6]; Table 3, mean of three experiments): 21.5 µM
CC1CNCCN1S(=O)(=O)c1cccc2cnccc12 (stereo not shown) [Inhibitor 4] | 80.3 ± 8.2 % of control | 88.0 ± 26.4 % of control | –
CC(=O)c1c(O)c(C)c(O)c(Cc2c(O)c3c(c(C(=O)/C=C/c4ccccc4)c2O)OC(C)(C)C=C3)c1O [Inhibitor 58] | 28.1 ± 39.8 % of control | 147.2 ± 64.3 % of control | –
OC[C@@H]1O[C@H](n2cnc3cc(Cl)c(Cl)cc32)[C@@H](O)[C@H]1O [Inhibitor 66] | 56.4 ± 12.9 % of control | 120.8 ± 78.0 % of control | –
C[S+]([O-])c1ccc(-c2nc(-c3ccc(F)cc3)c(-c3ccncc3)[nH]2)cc1 (stereo not shown) [Inhibitor 3] | 75.1 ± 7.8 % of control | 105.9 ± 15.9 % of control | –
O=C1Nc2ccccc2/C1=C1\Nc2ccccc2C1=O [Inhibitor 69] | 82.0 ± 4.2 % of control | 110.3 ± 28.4 % of control | –
N#CC(C#N)=Cc1cc(O)c(O)c([N+](=O)[O-])c1 [Inhibitor 17] | 89 ± 54.9 % of control | 116.0 ± 9.8 % of control | –
